{
  "source": "patent US20150045553A1",
  "about": "“PHENYLTRIAZOLE DERIVATIVE” (TOSHO PHARMACEUTICAL CO., LTD, priority 2011, published 2015)",
  "note": "Counter-ions that a name gives are not always drawn.",
  "data": [
    {"biological_target": "T1, H3 receptor (Rattus norvegicus, UniProt Q9QYN8)", "T1 construct": "The frontal cortex dissected from rats was homogenized; from tissue; host or cells: rat frontal cortex membrane fraction", "T1 sequence (Q9QYN8 whole entry)": "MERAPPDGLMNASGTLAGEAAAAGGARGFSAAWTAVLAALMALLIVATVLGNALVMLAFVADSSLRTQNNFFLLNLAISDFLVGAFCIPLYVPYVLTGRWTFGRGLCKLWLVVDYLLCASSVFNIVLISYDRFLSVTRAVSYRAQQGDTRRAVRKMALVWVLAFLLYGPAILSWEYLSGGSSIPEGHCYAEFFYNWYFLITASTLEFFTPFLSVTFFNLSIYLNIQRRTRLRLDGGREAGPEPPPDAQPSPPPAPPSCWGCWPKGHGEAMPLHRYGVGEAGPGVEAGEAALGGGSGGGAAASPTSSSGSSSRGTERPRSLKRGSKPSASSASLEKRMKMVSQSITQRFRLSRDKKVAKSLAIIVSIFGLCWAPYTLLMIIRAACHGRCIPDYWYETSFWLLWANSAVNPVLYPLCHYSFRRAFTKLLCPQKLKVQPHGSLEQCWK", "assay": "Rat H3 receptor binding test (N-α-methyl[3H]histamine, frontal cortex membrane fraction)", "conditions": "N-α-methyl[3H]histamine 0.75 nM, room temperature, an hour", "experimental": "(Test 1: Rat H3 Receptor Binding Test)\nThe frontal cortex dissected from rats was homogenized with a Teflon (registered trademark) homogenizer in a 50 mM Tris-HCl buffer solution (pH 7.4) containing a protease inhibitor (Complete EDTA-free; Roche Diagnostics) and 5 mM EDTA. The homogenate was centrifuged at 48,000×g for 15 minutes. The supernatant was removed and the pellet was suspended in a 50 mM Tris-HCl buffer solution (pH 7.4) containing 5 mM EDTA and centrifuged at 48,000×g for 15 minutes. The supernatant was removed and the pellet was suspended in a 50 mM Tris-HCl buffer solution (pH 7.4) containing 5 mM EDTA to give a membrane fraction. The membrane fraction (the protein content in the final reaction mixture: 75 μg), N-α-methyl[^3H]histamine (PerkinElmer; final concentration: 0.75 nM) and a test drug were mixed and subjected to reaction at room temperature for an hour. After the end of the reaction, the reaction mixture was suction filtered through a 96-well GF/C filter plate pretreated with 0.3% polyethyleneimine; the filters were then washed five times with a 50 mM Tris-HCl buffer solution (pH 7.4) containing 5 mM EDTA. After the washing, the filters were dried and a scintillator was added to measure the residual radioactivity on the filter with TopCount (PerkinElmer).\nThe residual radioactivity in the presence of 10 μM thioperamide was taken as indicative of nonspecific binding and the difference from the residual radioactivity in the absence of thioperamide was taken as indicative of specific binding. Each of the test drugs was dissolved and diluted in DMSO at varying concentrations to plot a dose-response curve from the corresponding residual radioactivities; the concentration of test drug that inhibited the specific binding by 50% (IC50) was determined from this curve.", "units": {"IC50": "nM"}, "values": [
      {"molecule": "CCOC(=O)c1cn(-c2ccc(OC3CCN(C4CCC4)CC3)cc2)nn1", "note": "[Compound No. 1, ethyl 1-{4-[(1-cyclobutylpiperidin-4-yl)oxy]phenyl}-1H-1,2,3-triazole-4-carboxylate]", "IC50": 5.3},
      {"molecule": "COCc1cn(-c2ccc(OC3CCN(C4CCC4)CC3)cc2)nn1", "note": "[Compound No. 2, 1-cyclobutyl-4-{4-[4-(methoxymethyl)-1H-1,2,3-triazol-1-yl]phenoxy}piperidine]", "IC50": 7.4},
      {"molecule": "CCOc1cn(-c2ccc(OC3CCN(C4CCC4)CC3)cc2)nn1", "note": "[Compound No. 3, 1-cyclobutyl-4-[4-(4-ethoxy-1H-1,2,3-triazol-1-yl)phenoxy]piperidine]", "IC50": 5.1},
      {"molecule": "c1cc(-n2cc(C3CC3)nn2)ccc1OC1CCN(C2CCC2)CC1", "note": "[Compound No. 4, 1-cyclobutyl-4-[4-(4-cyclopropyl-1H-1,2,3-triazol-1-yl)phenoxy]piperidine]", "IC50": 3.6},
      {"molecule": "O=C(O)c1cn(-c2ccc(OC3CCN(C4CCC4)CC3)cc2)nn1", "note": "[Compound No. 17, 1-{4-[(1-cyclobutylpiperidin-4-yl)oxy]phenyl}-1H-1,2,3-triazole-4-carboxylic acid hydrochloride]", "IC50": 132},
      {"molecule": "O=C(c1cn(-c2ccc(OC3CCN(C4CCC4)CC3)cc2)nn1)N1CCC1", "note": "[Compound No. 18, azetidin-1-yl(1-{4-[(1-cyclobutylpiperidin-4-yl)oxy]phenyl}-1H-1,2,3-triazol-4-yl)methanone]", "IC50": 14},
      {"molecule": "NC(=O)c1cn(-c2ccc(OC3CCN(C4CCC4)CC3)cc2)nn1", "note": "[Compound No. 20, 1-{4-[(1-cyclobutylpiperidin-4-yl)oxy]phenyl}-1H-1,2,3-triazole-4-carboxamide]", "IC50": 18},
      {"molecule": "N#Cc1cn(-c2ccc(OC3CCN(C4CCC4)CC3)cc2)nn1", "note": "[Compound No. 21, 1-{4-[(1-cyclobutylpiperidin-4-yl)oxy]phenyl}-1H-1,2,3-triazole-4-carbonitrile hydrochloride]", "IC50": 13},
      {"molecule": "c1cn(-c2ccc(OC3CCN(C4CCC4)CC3)cc2)nn1", "note": "[Compound No. 23, 1-cyclobutyl-4-[4-(1H-1,2,3-triazol-1-yl)phenoxy]piperidine]", "IC50": 17},
      {"molecule": "CCOC(=O)c1cn(-c2ccc(OCCCN3CCC[C@H]3C)cc2)nn1", "note": "[Compound No. 24, ethyl 1-(4-{3-[(2R)-2-methylpyrrolidin-1-yl]propoxy}phenyl)-1H-1,2,3-triazole-4-carboxylate]", "IC50": 7.4},
      {"molecule": "O=C(c1cn(-c2ccc(OC3CCN(C4CCC4)CC3)cc2)nn1)N1CCOCC1", "note": "[Compound No. 25, (1-{4-[(1-cyclobutylpiperidin-4-yl)oxy]phenyl}-1H-1,2,3-triazol-4-yl)(morpholin-4-yl)methanone]", "IC50": 6.4},
      {"molecule": "CN(C)C(=O)c1cn(-c2ccc(OC3CCN(C4CCC4)CC3)cc2)nn1", "note": "[Compound No. 26, 1-{4-[(1-cyclobutylpiperidin-4-yl)oxy]phenyl}-N,N-dimethyl-1H-1,2,3-triazole-4-carboxamide]", "IC50": 5.5},
      {"molecule": "CCOC(=O)c1cn(-c2ccc(OC3CCN(C(C)(C)C)CC3)cc2)nn1", "note": "[Compound No. 27, ethyl 1-{4-[(1-tert-butylpiperidin-4-yl)oxy]phenyl}-1H-1,2,3-triazole-4-carboxylate]", "IC50": 70},
      {"molecule": "CC(C)(C)N1CCC(Oc2ccc(-n3cc(C(=O)N4CCCC4)nn3)cc2)CC1", "note": "[Compound No. 28, (1-{4-[(1-tert-butylpiperidin-4-yl)oxy]phenyl}-1H-1,2,3-triazol-4-yl)(pyrrolidin-1-yl)methanone]", "IC50": 33},
      {"molecule": "CC(C)(C)N1CCC(Oc2ccc(-n3cc(C(=O)N4CCC4)nn3)cc2)CC1", "note": "[Compound No. 29, azetidin-1-yl(1-{4-[(1-tert-butylpiperidin-4-yl)oxy]phenyl}-1H-1,2,3-triazol-4-yl)methanone]", "IC50": 48},
      {"molecule": "CNC(=O)c1cn(-c2ccc(OC3CCN(C(C)(C)C)CC3)cc2)nn1", "note": "[Compound No. 30, 1-{4-[(1-tert-butylpiperidin-4-yl)oxy]phenyl}-N-methyl-1H-1,2,3-triazole-4-carboxamide]", "IC50": 126},
      {"molecule": "CC(C)(C)N1CCC(Oc2ccc(-n3cc(C(N)=O)nn3)cc2)CC1", "note": "[Compound No. 31, 1-{4-[(1-tert-butylpiperidin-4-yl)oxy]phenyl}-1H−1,2,3-triazole-4-carboxamide]", "IC50": 122},
      {"molecule": "CC(C)(C)N1CCC(Oc2ccc(-n3cc(C#N)nn3)cc2)CC1", "note": "[Compound No. 32, 1-{4-[(1-tert-butylpiperidin-4-yl)oxy]phenyl}-1H-1,2,3-triazole-4-carbonitrile]", "IC50": 67},
      {"molecule": "CCOC(=O)c1ncn(-c2ccc(OC3CCN(C4CCC4)CC3)cc2)n1", "note": "[Compound No. 33, ethyl 1-{4-[(1-cyclobutylpiperidin-4-yl)oxy]phenyl}-1H-1,2,4-triazole-3-carboxylate]", "IC50": 4.5},
      {"molecule": "O=C(c1ncn(-c2ccc(OC3CCN(C4CCC4)CC3)cc2)n1)N1CCCC1", "note": "[Compound No. 34, (1-{4-[(1-cyclobutylpiperidin-4-yl)oxy]phenyl}-1H-1,2,4-triazol-3-yl)(pyrrolidin-1-yl)methanone]", "IC50": 1.3},
      {"molecule": "O=C(c1ncn(-c2ccc(OC3CCN(C4CCC4)CC3)cc2)n1)N1CCC1", "note": "[Compound No. 35, azetidin-1-yl(1-{4-[(1-cyclobutylpiperidin-4-yl)oxy]phenyl}-1H-1,2,4-triazol-3-yl)methanone]", "IC50": 0.5},
      {"molecule": "O=C(c1ncn(-c2ccc(OC3CCN(C4CCC4)CC3)cc2)n1)N1CCCCC1", "note": "[Compound No. 36, (1-{4-[(1-cyclobutylpiperidin-4-yl)oxy]phenyl}-1H-1,2,4-triazol-3-yl)(piperidin-1-yl)methanone]", "IC50": 10},
      {"molecule": "CC(C)(C)NC(=O)c1ncn(-c2ccc(OC3CCN(C4CCC4)CC3)cc2)n1", "note": "[Compound No. 37, N-tert-butyl-1-{4-[(1-cyclobutylpiperidin-4-yl)oxy]phenyl}-1H-1,2,4-triazole-3-carboxamide]", "IC50": 7.3},
      {"molecule": "O=C(O)c1ncn(-c2ccc(OC3CCN(C4CCC4)CC3)cc2)n1", "note": "[Compound No. 38, 1-{4-[(1-cyclobutylpiperidin-4-yl)oxy]phenyl}-1H-1,2,4-triazole-3-carboxylic acid hydrochloride]", "IC50": 158},
      {"molecule": "NC(=O)c1ncn(-c2ccc(OC3CCN(C4CCC4)CC3)cc2)n1", "note": "[Compound No. 39, 1-{4-[(1-cyclobutylpiperidin-4-yl)oxy]phenyl}-1H-1,2,4-triazole-3-carboxamide]", "IC50": 11},
      {"molecule": "CC(=O)c1ncn(-c2ccc(OC3CCN(C4CCC4)CC3)cc2)n1", "note": "[Compound No. 40, 1-(1-{4-[(1-cyclobutylpiperidin-4-yl)oxy]phenyl}-1H-1,2,4-triazol-3-yl)ethanone hydrochloride]", "IC50": 6.4},
      {"molecule": "N#Cc1ncn(-c2ccc(OC3CCN(C4CCC4)CC3)cc2)n1", "note": "[Compound No. 41, 1-{4-[(1-cyclobutylpiperidin-4-yl)oxy]phenyl}-1H-1,2,4-triazole-3-carbonitrile]", "IC50": 6.4},
      {"molecule": "CC(=O)c1cn(-c2ccc(OC3CCN(C4CCC4)CC3)cc2)nn1", "note": "[compound 5, 1-(1-[4-[(1-cyclobutylpiperidin-4-yl)oxy]phenyl}-1H-1,2,3-triazol-4-yl)ethanone]", "IC50": 7.7},
      {"molecule": "CC(C)(O)c1cn(-c2ccc(OC3CCN(C4CCC4)CC3)cc2)nn1", "note": "[compound 6, 2-(1-{4-[(1-cyclobutylpiperidin-4-yl)oxy]phenyl}-1H-1,2,3-triazol-4-yl)propan-2-ol]", "IC50": 12},
      {"molecule": "CC(C)(C)c1cn(-c2ccc(OC3CCN(C4CCC4)CC3)cc2)nn1", "note": "[compound 7, 4-[4-(4-tert-butyl-1H-1,2,3-triazol-1-yl)phenoxy]-1-cyclobutylpiperidine]", "IC50": 4.9},
      {"molecule": "Cc1c(C(=O)N2CCCC2)nnn1-c1ccc(OC2CCN(C3CCC3)CC2)cc1", "note": "[compound 9, (1-{4-[(1-cyclobutylpiperidin-4-yl)oxy]phenyl}-5-methyl-1H-1,2,3-triazol-4-yl)(pyrrolidin-1-yl)methanone]", "IC50": 24},
      {"molecule": "Cc1c(C(=O)N2CCC2)nnn1-c1ccc(OC2CCN(C3CCC3)CC2)cc1", "note": "[compound 10, azetidin-1-yl(1-{4-[(1-cyclobutylpiperidin-4-yl)oxy]phenyl}-5-methyl-1H-1,2,3-triazol-4-yl)methanone]", "IC50": 37},
      {"molecule": "CNC(=O)c1nnn(-c2ccc(OC3CCN(C4CCC4)CC3)cc2)c1C", "note": "[compound 11, 1-{4-[(1-cyclobutylpiperidin-4-yl)oxy]phenyl}-N,5-dimethyl-1H-1,2,3-triazole-4-carboxamide]", "IC50": 19},
      {"molecule": "O=C(Cc1cn(-c2ccc(OC3CCN(C4CCC4)CC3)cc2)nn1)N1CCCC1", "note": "[compound 12, 2-(1-[4-[(1-cyclobutylpiperidin-4-yl)oxy]phenyl}-1H-1,2,3-triazol-4-yl)-1-(pyrrolidin-1-yl)ethanone]", "IC50": 16},
      {"molecule": "O=C(Cc1cn(-c2ccc(OC3CCN(C4CCC4)CC3)cc2)nn1)N1CCC1", "note": "[compound 13, 1-(azetidin-1-yl)-2-(1-{4-[(1-cyclobutylpiperidin-4-yl)oxy]phenyl}-1H-1,2,3-triazol-4-yl)ethanone]", "IC50": 19},
      {"molecule": "CNC(=O)Cc1cn(-c2ccc(OC3CCN(C4CCC4)CC3)cc2)nn1", "note": "[compound 14, 2-(1-{4-[(1-cyclobutylpiperidin-4-yl)oxy]phenyl}-1H-1,2,3-triazol-4-yl)-N-methylacetamide]", "IC50": 32}
    ]}
  ]
}
